The results in this text go back to patent publication US6762181B1, “Aminomethylpyrrolidine derivatives having aromatic substituents” (Daiichi Pharmaceutical Co., Ltd., priority 1999, dated 2004).

In brackets after ≈: the same amount, converted by molar mass. Read-outs that look alike come from different tables or passages of the source. A value given as a limit tells only on which side of the number the result lay.

Assay in all cases: Antibacterial activity (MIC), Japan Society of Chemotherapy standard method
Common to all, as to type: cell-based

One assay concerns E. coli NIHJ. How it is done:
(§1) Antibacterial activities of the compounds of the invention were measured in accordance with the standard method specified by the Japan Society of Chemotherapy, with the results shown in the following table as MIC values (μg/ml). In this connection, MIC values of levofloxacin (LVFX), ciprofloxacin (CPFX) and 5-amino-7-[3-(R)-[1-(S)-aminoethyl]pyrrolidin-1-yl]-6-fluoro-1-[2-(S)-fluoro-1-(R)-cyclopropyl]-8-methyl-1,4-dihydro-4-oxoquinoline-3-carboxylic acid (control drug 1) described in WO 9623782 are also shown for the sake of comparison with the MIC values of the compounds of the invention.

Another assay has as its system E. faecalis ATCC 19433. The protocol:
as §1

For the next assay, the system named is K. pneumoniae TYPE 1. The protocol:
as §1

A further assay has as its system Pr. Vulgaris O8601. How it is done: as §1
The next assay concerns Ps. aeruginosa 32104. How it is done: as §1
In the next assay the test system is Ps. aeruginosa 32121. How it is done: as §1
For a further assay, the system named is S. aureus 870307. The protocol: as §1
The next assay deals with S. aureus FDA 209P. How it is done: as §1
In another assay the test system is S. epidermidis 56500. How it is done: as §1
The next assay deals with S. flexneri 2A 5503. How it is done:
as §1

Another assay deals with Ser. marcescens 10100. The protocol:
as §1

The next assay relates to Str. pneumoniae J24. How it is done:
as §1

In the next assay the test system is Str. pyrogenes G-36. How it is done:
as §1

In the next assay the test system is X. maltophilia IID 1275. The protocol:
as §1

Where [1] appears, read: Escherichia coli, read-out: MIC.
The mark [2] stands for this setting: Enterococcus faecalis, ATCC19433, E. faecalis ATCC 19433, read-out: MIC.
Setting [3] is: Klebsiella pneumoniae, TYPE1, K. pneumoniae TYPE 1, read-out: MIC.
Where [4] appears, read: Proteus vulgaris, read-out: MIC.
Setting [5] is: Pseudomonas aeruginosa, 32104, Ps. aeruginosa 32104, read-out: MIC.
[6] abbreviates: Pseudomonas aeruginosa, 32121, Ps. aeruginosa 32121, read-out: MIC.
The mark [7] stands for this setting: Staphylococcus aureus, 870307, S. aureus 870307, read-out: MIC.
Setting [8] is: Staphylococcus aureus, FDA209P, read-out: MIC.
Setting [9] is: Staphylococcus epidermidis, read-out: MIC.
Setting [10] is: Shigella flexneri, 2A5503, S. flexneri 2A 5503, read-out: MIC.
The mark [11] stands for this setting: Serratia marcescens, 10100, Ser. marcescens 10100, read-out: MIC.
[12] abbreviates: Streptococcus pneumoniae, J24, Str. pneumoniae J24, read-out: MIC.
[13] abbreviates: Stenotrophomonas maltophilia, IID1275, X. maltophilia IID 1275, read-out: MIC.

Broadly, the MIC is the least concentration at which growth counts as inhibited. Turning to `O=C(O)c1cn(C2CC2)c2cc(N3CCNCC3)c(F)cc2c1=O` [CPFX, ciprofloxacin, reference compound], the MIC in the assay on E. coli NIHJ (setting [1]) was not above 0.003 µg/mL; in the assay on E. faecalis ATCC 19433 (setting [2]) it was 0.78 µg/mL (≈ 2.35 µM); with K. pneumoniae TYPE 1 (setting [3]), 0.025 µg/mL (≈ 0.0754 µM); in the assay on Pr. Vulgaris O8601 (setting [4]) it was not above 0.003 µg/mL; in the assay with Ps. aeruginosa 32104 (setting [5]), 0.05 µg/mL (≈ 0.151 µM); with Ps. aeruginosa 32121 (setting [6]), 0.025 µg/mL (≈ 0.0754 µM). The MIC turned out to be 3.13 µg/mL (≈ 9.45 µM) in the assay with S. aureus 870307 (setting [7]); 0.1 µg/mL (≈ 0.302 µM) with S. aureus FDA 209P (setting [8]); 0.2 µg/mL (≈ 0.604 µM) with S. epidermidis 56500 (setting [9]); 0.006 µg/mL (≈ 0.0181 µM) in the assay with S. flexneri 2A 5503 (setting [10]); 0.025 µg/mL (≈ 0.0754 µM) in the assay on Ser. marcescens 10100 (setting [11]); 0.1 µg/mL (≈ 0.302 µM) in the assay on Str. pneumoniae J24 (setting [12]). Moreover, the MIC came out at 1.56 µg/mL (≈ 4.71 µM) in the assay on Str. pyrogenes G-36 (read-out: MIC) and 0.78 µg/mL (≈ 2.35 µM) with X. maltophilia IID 1275 (setting [13]).

Turning to `Cc1c(N2CC[C@@H](C(N)c3ccccc3)C2)c(F)c(N)c2c(=O)c(C(=O)O)cn([C@@H]3C[C@@H]3F)c12` (stereo partly drawn) [Example 5, 5-Amino-7-[3-(R)-(1-Amino-1-Phenylmethyl)-1-Pyrrolidinyl]-6-Fluoro-1-[2-(S)-Fluoro-1-(R)-Cyclopropyl]-1,4-Dihydro-8-Methyl-4-Oxoquinoline-3-Carboxylic Acid], the MIC in the assay with E. coli NIHJ (setting [1]) was not above 0.003 µg/mL; in the assay with E. faecalis ATCC 19433 (setting [2]) it was 0.006 µg/mL (≈ 0.0128 µM); with K. pneumoniae TYPE 1 (setting [3]), 0.013 µg/mL (≈ 0.0277 µM); in the assay with Pr. Vulgaris O8601 (setting [4]), 0.013 µg/mL (≈ 0.0277 µM); in the assay on Ps. aeruginosa 32104 (setting [5]) it was 0.1 µg/mL (≈ 0.213 µM); in the assay on Ps. aeruginosa 32121 (setting [6]) it was 0.025 µg/mL (≈ 0.0534 µM). Moreover, the MIC in the assay on S. aureus 870307 (setting [7]) is not above 0.003 µg/mL; in the assay on S. aureus FDA 209P (setting [8]), not above 0.003 µg/mL; with S. epidermidis 56500 (setting [9]), not above 0.003 µg/mL; in the assay with S. flexneri 2A 5503 (setting [10]), not above 0.003 µg/mL; in the assay on Ser. marcescens 10100 (setting [11]) it was 0.025 µg/mL (≈ 0.0534 µM); with Str. pneumoniae J24 (setting [12]) it was not above 0.003 µg/mL. Besides, the minimum inhibitory concentration (MIC) was not above 0.003 µg/mL in the assay with Str. pyrogenes G-36 (read-out: MIC) and 0.025 µg/mL (≈ 0.0534 µM) in the assay with X. maltophilia IID 1275 (setting [13]).

For `Nc1c(F)c(N2CC[C@@H](C(N)c3ccco3)C2)c(F)c2c1c(=O)c(C(=O)O)cn2[C@@H]1C[C@@H]1F` (stereo partly drawn) [Example 11, 5-Amino-7-{3-(R)-[1-amino-1-(2-furyl)methyl]-1-pyrrolidinyl}-6,8-difluoro-1-[2-(S)-fluoro-1-(R)-cyclopropyl]-1,4-dihydro-4-oxoquinoline-3-carboxylic acid], the MIC entry was “≦0.003 μg/ml” against E. coli NIHJ; 0.025 µg/mL (≈ 0.0541 µM) in the assay with E. faecalis ATCC 19433 (E. faecalis ATCC 19433); 0.025 µg/mL (≈ 0.0541 µM) in the assay with K. pneumoniae TYPE 1 (setting [3]); 0.05 µg/mL (≈ 0.108 µM) in the assay on Pr. Vulgaris O8601; 0.2 µg/mL (≈ 0.432 µM) in the assay on Ps. aeruginosa 32104 (setting [5]); 0.05 µg/mL (≈ 0.108 µM) in the assay on Ps. aeruginosa 32121 (setting [6]). The minimal inhibitory concentration (MIC) against S. aureus 870307 (S. aureus 870307) was 0.025 µg/mL (≈ 0.0541 µM); in the assay on S. aureus FDA 209P (setting [8]), not above 0.003 µg/mL; in the assay on S. epidermidis 56500 (setting [9]), not above 0.003 µg/mL; in the assay on S. flexneri 2A 5503 (S. flexneri 2A 5503), “≦0.003 μg/ml”; in the assay with Ser. marcescens 10100 (setting [11]), 0.05 µg/mL (≈ 0.108 µM); in the assay with Str. pneumoniae J24 (setting [12]), 0.006 µg/mL (≈ 0.013 µM). The MIC in the assay on Str. pyrogenes G-36 is 0.013 µg/mL (≈ 0.0281 µM); in the assay on X. maltophilia IID 1275 (setting [13]), 0.05 µg/mL (≈ 0.108 µM).

For `Cc1c(N2CC[C@@H](C(N)c3ccccn3)C2)c(F)c(N)c2c(=O)c(C(=O)O)cn([C@@H]3C[C@@H]3F)c12` (stereo partly drawn) [Example 17, 5-Amino-7-{3-(R)-[1-amino-1-(2-pyridyl)methyl]-1-pyrrolidiny}-6-fluoro-1-[(1R, 2S)-2-fluorocyclopropyl)-1,4-dihydro-8-methyl-4-oxoquinoline-3-carboxylic acid], the minimum inhibitory concentration (MIC) result was “≦0.003 μg/ml” in the assay on E. coli NIHJ; 0.025 µg/mL (≈ 0.0532 µM) in the assay on E. faecalis ATCC 19433 (E. faecalis ATCC 19433); 0.05 µg/mL (≈ 0.106 µM) in the assay with K. pneumoniae TYPE 1 (K. pneumoniae TYPE 1); 0.05 µg/mL (≈ 0.106 µM) with Pr. Vulgaris O8601; 0.2 µg/mL (≈ 0.426 µM) against Ps. aeruginosa 32104 (Ps. aeruginosa 32104); 0.1 µg/mL (≈ 0.213 µM) against Ps. aeruginosa 32121 (Ps. aeruginosa 32121). Moreover, the minimum inhibitory concentration (MIC) in the assay with S. aureus 870307 (S. aureus 870307) is 0.013 µg/mL (≈ 0.0277 µM); in the assay with S. aureus FDA 209P, “≦0.003 μg/ml”; against S. epidermidis 56500, “≦0.003 μg/ml”; against S. flexneri 2A 5503 (S. flexneri 2A 5503), 0.006 µg/mL (≈ 0.0128 µM); in the assay with Ser. marcescens 10100 (Ser. marcescens 10100), 0.1 µg/mL (≈ 0.213 µM); against Str. pneumoniae J24 (Str. pneumoniae J24), “≦0.003 μg/ml”. In addition, the MIC entry against Str. pyrogenes G-36 was “≦0.003 μg/ml”; in the assay on X. maltophilia IID 1275 (X. maltophilia IID 1275), 0.05 µg/mL (≈ 0.106 µM).

Take `COc1c(N2CC[C@@H](C(N)c3ccccc3)C2)ccc2c(=O)c(C(=O)O)cn([C@@H]3C[C@@H]3F)c12` (stereo partly drawn) [Example 6, 7-[3-(R)-(1-Amino-1-Phenylmethyl)-1-Pyrrolidinyl]-1-[2-(S)-Fluoro-1-(R)-Cyclopropyl]-1,4-Dihydro-8-Methoxy-4-Oxoquinoline-3-Carboxylic Acid]: the minimal inhibitory concentration (MIC) in the assay on E. coli NIHJ (setting [1]) is 0.006 µg/mL (≈ 0.0133 µM); in the assay with E. faecalis ATCC 19433 (setting [2]) it was 0.025 µg/mL (≈ 0.0554 µM); with K. pneumoniae TYPE 1 (setting [3]), 0.05 µg/mL (≈ 0.111 µM); with Pr. Vulgaris O8601 (setting [4]), 0.1 µg/mL (≈ 0.221 µM); in the assay with Ps. aeruginosa 32104 (setting [5]) it was 0.2 µg/mL (≈ 0.443 µM); in the assay on Ps. aeruginosa 32121 (setting [6]) it was 0.1 µg/mL (≈ 0.221 µM). For the same compound, the minimum inhibitory concentration (MIC) in the assay on S. aureus 870307 (setting [7]) was 0.013 µg/mL (≈ 0.0288 µM); in the assay with S. aureus FDA 209P (setting [8]), not above 0.003 µg/mL; in the assay on S. epidermidis 56500 (setting [9]) it was 0.006 µg/mL (≈ 0.0133 µM); with S. flexneri 2A 5503 (setting [10]), 0.013 µg/mL (≈ 0.0288 µM); in the assay on Ser. marcescens 10100 (setting [11]), 0.1 µg/mL (≈ 0.221 µM); with Str. pneumoniae J24 (setting [12]), not above 0.003 µg/mL. For the same compound, the minimal inhibitory concentration (MIC) is not above 0.003 µg/mL in the assay with Str. pyrogenes G-36 (read-out: MIC) and 0.1 µg/mL (≈ 0.221 µM) in the assay on X. maltophilia IID 1275 (setting [13]).
